From the supplement of paper PMC5579334

Columns and labels:
HS-Sch-2 = test: relative IC50 (inflection point of fitted dose-response curve, CellTiter-Glo viability, 72 h; top asymptote may be below 50% inhibition); higher = less potent
Summary of the method: (§1)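 For this screen, 384-well plates were preprinted with each compound at five concentrations in 10-fold steps and seeded with MPNST cell lines or primary human Schwann cells at 750–1000 cells per well. Incubation lasted 72 h at 37 °C, 5% CO2, and CellTiter-Glo ATP luminescence, scaled between vehicle and positive-control wells and averaged over duplicates where available, served as viability. Logistic fits with four parameters were applied. Relative IC50 (censored at the top concentration) and drug sensitivity score derive from these fits, and percent inhibition is at the top concentration.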

YST-1 = test: as above
Summary of the method: as §1

HS-PSS [1] = test: as above
Summary of the method: as §1

HS-PSS [2] = test: relative IC50 (inflection point of fitted dose-response curve, CellTox-Green cytotoxicity, 72 h; top asymptote may be below 50%); higher = less potent
Summary of the method: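 MPNST cell lines and primary human Schwann cells were grown for 72 h at 37 °C in 384-well plates containing five 10-fold compound dilutions. CellTox-Green, added before seeding at a final 1:1000 dilution, gave fluorescence from DNA released by disrupted cells, and signals were scaled to vehicle and positive-control wells. Curves were fitted with a four-parameter logistic model. Drug sensitivity score and relative IC50 come from these fits, with IC50 censored at the top concentration.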

SMILES	relative IC50 (HS-Sch-2) [nM]	relative IC50 (YST-1) [nM]	relative IC50 (HS-PSS [1]) [nM]	relative IC50 (HS-PSS [2]) [nM]
O=C(O)c1ccc(Nc2ncc3c(n2)-c2ccc(Cl)cc2C(c2c(F)cccc2F)=NC3)cc1 [MLN-8054]	1110	625	1260	–
CN(c1ncccc1CNc1nc(Nc2ccc3c(c2)CC(=O)N3)ncc1C(F)(F)F)S(C)(=O)=O	3410	2010	3340	–
CC(=O)NCC(=O)N1[C@@H]2CC[C@H]1c1ccc(Nc3ncc(C(F)(F)F)c(NC4CCC4)n3)cc12	946	749	960	–
Cc1cc(Nc2ncc(Cl)c(Nc3ccccc3S(=O)(=O)C(C)C)n2)c(OC(C)C)cc1C1CCNCC1 [Ceritinib]	926	359	91.3	–
CC(C)NC[C@@H](C(=O)N1CCN(c2ncnc3c2[C@H](C)C[C@H]3O)CC1)c1ccc(Cl)cc1 [Ipatasertib]	1080	879	1160	–
Cc1ccc2nc(CN(CCN(Cc3nc4ccc(C)cc4[nH]3)Cc3nc4ccc(C)cc4[nH]3)Cc3nc4ccc(C)cc4[nH]3)[nH]c2c1	8240	7770	7700	–
N#CC(c1ccnc(OCc2ccc(CN3CCOCC3)cc2)n1)c1nc2ccccc2s1 (stereo not drawn) [Bentamapimod]	2690	1500	1690	–
CC(C)CC(=O)Nc1n[nH]c2c1CN(C(=O)C1CCN(C)CC1)C2(C)C	1290	859	604	–
O=C(CCCCCCNC(=O)c1cnc(N(c2ccccc2)c2ccccc2)nc1)NO [Rocilinostat]	1930	1240	2760	–
Cc1cc2c(C(=O)NC[C@H](C)c3ccccc3)c(O)c(O)cc2c(O)c1-c1c(C)cc2c(C(=O)NC[C@H](C)c3ccccc3)c(O)c(O)cc2c1O [Sabutoclax]	523	618	8740	–
CC(C)Oc1ccc(C(=O)N[C@H](CNC(=O)CN(C)C)Cc2ccc(-c3cn4cccc([C@H](C)O)c4n3)cc2)cc1Cl	72.3	75.4	757	–
COc1cc(NS(C)(=O)=O)ccc1Nc1c2ccccc2nc2ccccc12 [Amsacrine]	634	252	1250	–
C=CC(=O)Nc1cc(Nc2nccc(-c3cn(C)c4ccccc34)n2)c(OC)cc1N(C)CCN(C)C [Osimertinib]	759	299	472	–
Cc1cnc(-c2ccccc2C(C)C)nc1NCc1ccc(-n2ccnn2)cc1 [ML323]	1460	–	1670	> 10000
Cc1cc(-c2nc(-c3ccc(OC(F)(F)F)cc3)no2)nn1Cc1ccnc(N2CCN(C3CC3)CC2)c1 [BAY 87-2243]	0.63	–	0.66	> 1000
C=CC(=O)N1CCC(Oc2cc3c(Nc4ccc(Cl)c(Cl)c4F)ncnc3cc2OC)CC1 [Poziotinib]	> 1000	–	> 1000	> 1000
COc1cc2ncnc(Oc3cccc(NC(=O)Nc4cc(C(C)(C)C(F)(F)F)on4)c3)c2cc1OC	> 10000	–	> 10000	> 10000
OC(CC1c2ccccc2-c2cncn21)C1CCCCC1 (stereo not drawn) [NLG919]	> 10000	–	> 10000	> 10000
CCc1cc2c(cc1N1CCC(N3CCOCC3)CC1)C(C)(C)c1[nH]c3cc(C#N)ccc3c1C2=O [Alectinib]	> 1000	–	34.8	> 1000
COCC(=O)NC/C=C/c1ccc2ncnc(Nc3ccc(Oc4ccc(C)nc4)c(C)c3)c2c1	1250	–	1540	> 10000
COc1ccc(COc2cc3oc(=O)c4cc(C(C)O)ccc4c3cc2OC)cc1 (stereo not drawn) [Palomid-529]	> 10000	–	> 10000	> 10000
